Results taken from paper PMC11352932, “Enhancing Maturation and Translatability of Human Pluripotent Stem Cell-Derived Cardiomyocytes through a Novel Medium Containing Acetyl-CoA Carboxylase 2 Inhibitor” (Cells, 2024).
Positions of bridges follow the written chain, without caps; N, C: chain ends. No end group written: not given here.

How the values were obtained:
[1] = tested on: IK1, encoded by Kir channels; experiment: Block of inward current in voltage-clamp; assay type: cell-based, human; conditions: hiPSC-CMs cultured in maturation medium
Procedure: All recordings were performed at RT.
Cells were superfused with an extracellular solution containing (mM) NaCl 136.8, KCl 4, HEPES 10, CaCl2 2, MgCl2 1, and Glucose 10 (pH adjusted to 7.2 with NaOH) for AP recording and K^+ current whole-cell recording. For whole-cell recording of Na^+ and Ca^2+ currents, the following extracellular solution was used (mM): NaCl 40, KCl 4, NMDG 96.8, HEPES 10, CaCl2 2, MgCl2 1, and Glucose 10 (pH adjusted to 7.2 with HCl); 1 mM of CdCl2 was also added to block L-type Ca^2+ currents when recording Na^+ currents.
Patch pipettes contained (mM): KCl 150, HEPES 10, EGTA 10, and MgATP 2 (pH adjusted to 7.2 with KOH). For AP recording, perforated patch recording was used, and pipettes were backfilled with a solution containing 50 μg/mL gramicidin (diluted from a 50 mg/mL gramicidin DMSO stock solution). A stock solution of ivabradine was prepared with DMSO. All stock solutions were diluted ≥1:1000 in extracellular solution before use.

hiPSC-CMs [2] = experiment: In vitro hypertrophy model, ET-1 stimulation; assay type: cell-based, human; conditions: 10 nM ET-1, 48 h
Procedure: After 2 weeks in either standard or maturation media, medium was switched to hypertrophy stimulation medium composed of RPMI no glucose supplemented with B27 plus insulin, 5.5 mM glucose and 10 nM endothelin-1 (ET-1, E7764). hPSC-CMs were cultured for 48 h in this medium before their use for further analyses.
Cell area, circularity index, and aspect ratio were determined with FIJI (ImageJ v.2.14.0) software using standard analysis plugins. For each condition, at least 60 cells were analyzed.
RNA extraction was performed using the Agencourt RNAdvance Cell V2 kit (catalog no. A47942, Beckman Coulter, Bromma, Sweden) according to the manufacturer’s instructions. RNA quality was assessed using the Fragment Analyzer Standard Sensitivity RNA kit from Agilent Technologies, ensuring an RNA integrity number greater than 7. Library preparation for iCell cardiomyoctes^2 and Chips22 derived CMs was performed at the NGI (National Genomic Infrastructure, KTH, Stockholm, Sweden) using the Illumina TruSeq stranded mRNA library preparation kit. Clustering was conducted by ‘cBot’, and sequencing was performed on a NovaSeq 6000 (NovaSeq Control Software 1.6.0/RTA v3.4.4) with a 2 × 150 setup using the ‘NovaSeqXp’ workflow in the ‘S4’ flowcell. […] Sequenced reads were quality-controlled with the FastQC software and pre-processed with Trim Galore. Processed reads from iCell cardiomyocytes^2 and Chips22 were aligned to the reference genome GRCh37 with the STAR aligner, and Tophat2 with Bowties was used to map IPS C32 reads to GRCh38. Read counts for the genes were generated using the featureCounts library and normalized FPKM values calculated with StringTie. […]
Differences in gene expression were identified using the DESeq2 method. The analysis was based on read counts, which are required to assess the measurement precision accurately. […]

iPSC C32 CMs = experiment: Calcium imaging, Fluo-4, with and without isoproterenol; assay type: cell-based, human
Procedure: (§1) iPSC C32-derived CMs were mounted on glass-bottom organ dishes (MatTek, P35G-1.5-14-c) coated with matrigel and incubated with Fluo-4 (Molecular Probes) at 5 µM for 30 min. Fluo-4 was washed in Tyrode’s solution for 30 min before imaging. Cells were placed in Tyrode’s solution containing CaCl2: 1.8 mM; NaCl: 130 mM; KCl: 5.4 mM; HEPES: 25 mM; MgCl2·6H2O: 0.5 mM; NaH2PO4: 0.4 mM; pH 7.4 at 37 °C for imaging. CMs were paced at 1 Hz and live imaging was recorded at 98 fps using a Nikon Eclipse with a Yokogawa CSU-X1 spinning disk and an EM-CCD Andor camera for high-speed acquisition. Individual whole-cell calcium transient intensities were analyzed in R software (V4.3.1). iCell CMs^2 were plated in 96-well CellCarrier Ultra Phenoplates (PerkinElmer) coated with fibronectin and stained with the EarlyTox^TM Cardiotoxicity kit (Molecular Devices, San Jose, CA, USA), following the manufacturer’s recommendations. Calcium transients were analyzed in the FDSS/µCell system (Hamatsu Photonics, Hamamatsu, Japan). Data were analyzed using FDSS Wavefront Analysis Software (V.1.2.2E). Isoproterenol was used at a final concentration of 1 µM. Calcium transients are calculated as ∆F/F0, with signal leveling and background normalization, where F0 is background fluorescence and F is fluorescence intensity. For each cell, amplitude (peak intensity), upstroke velocity, decay velocity, and peak width at 70% duration (PWD70%) were calculated.
HiPSC-C32 CMs cultured in
Data are presented as mean
E. Representative fluorescent images
ACC2i, and maturation medium. Scale bars: 20µm.
Figure S6. Maturation medium enhances response to hERG blockers. AP recordings were obtained […]
antiarrhythmic known to specifically block hERG.

iCell CMs^2 = experiment: Calcium transients, EarlyTox dye, FDSS; assay type: cell-based, human; conditions: maturation medium vs maturation medium without ACC2i
Procedure: as §1

ACC1 = tested on: ACC1; design: method as in PMID 12842871; conditions: ACC1 isoform; cited from earlier work
hiPSC-CMs [3] = experiment: Seahorse bioenergetics (Mito Stress test, etomoxir FAO); assay type: cell-based, human; conditions: maturation medium versus maturation medium without ACC2i
Procedure: The Seahorse XF96 extracellular flux analyzer (Agilent, Santa Clara, CA, USA) was used to assess mitochondrial function. Seahorse plates were coated with fibronectin, and hiPSC-CMs were seeded onto the plates at a density of 30,000 cells per well. Culture medium was exchanged for Agilent Seahorse XF RPMI Basal Medium supplemented with 5.5 mM glucose, 2 mM glutamine, 150 µM sodium pyruvate, 100 µM Palmitate/BSA, and 5 mM Hepes, 1 h before the assay and for the duration of the measurement. For the Mito Stress test, mitochondria inhibitors were injected during the measurements as follows: Oligomycin (2 µM), 2.4-Dinitrophenol (DNP, 225 µM), rotenone, and antimycin A (both at 1.11 µM). The oxygen consumption rate (OCR) and extracellular acidification rate (ECAR) values were normalized to the number of nuclei per well quantified by Hoechst staining and fluorescence imaging. The baseline OCR was defined as the average values measured from time points 2 to 4 during the experiments subtracting the non-mitochondrial oxygen consumption rate determined as the minimum rate measurement after rotenone/antimycin A injection. Spare respiratory capacity was calculated as the difference between uncoupler DNP and baseline OCR values. ATP production was calculated by subtracting the minimum rate measurement after Oligomycin injection from the last rate measurement before Oligomycin injection. Proton leak was calculated by subtracting non-mitochondrial OCR from the minimum rate measurement after Oligomycin injection. Lastly, oxidation of exogenous FA was measured after injection of 50 µM Etomoxir. OCR due to FA oxidation was determined by subtracting the minimum rate measurement after Etomoxir injection from the last rate measurement before Oligomycin injection. All wells with a basal respiratory rate below 40 pmol/min were excluded from analysis.

hiPSC-CMs [4] = experiment: hiPSC-CM viability by number of nuclei; assay type: cell-based, human; conditions: number of nuclei after 7 days in culture
Procedure: We initially investigated the impact of increasing concentrations of the ACC inhibitor CP640186 (hereafter referred to as ACC2i, given the predominant expression of ACC2 in CMs) on hiPSC-CM viability. […] Based on these initial results, a concentration of 5 uM was selected for further examination of the role of ACC2i in improving hiPSC-CM maturation.
Figure S1. ACC2 inhibition enhances fatty acid oxidation. Increasing concentrations of ACC2 inhibition are toxic for hiPSC-CMs at concentrations exceeding 5uM. A. Schematic showing signaling cascade and mode of action of acetyl-CoA carboxylase (ACC). There are 2 ACC isoforms: ACC1 in cytosol that is dedicated to the rate limiting step of de novo lipogenesis, and ACC2 a mitochondrial membrane […]
palmitoyltransferase (CPT-1), responsible for long-chain fatty-acid transport into mitochondria.
Combined ACC1 and 2 inhibition is expected to reduce malonyl-CoA levels and de-novo lipogenesis, and to enhance CPT-1 activity and fatty acid oxidation (FAO). G-6-P (glucose-6-phosphate), TCA cycle (tricarboxylic acid cycle), ETC (electron transport chain). B. Impact of increasing doses of ACC2i on hiPSC-CMs viability assessed by number of nuclei after 7 days in culture.
ACC2i concentrations higher than 5 µm. Source of mitochondria image: Servier Medical Art. Statistical […]
(1 picture or pasted object on this page, not shown here)

ACC2 = tested on: ACC2; design: method as in PMID 12842871; conditions: ACC2 isoform; cited from earlier work
[5] = 1 µM isoproterenol, maturation medium compared to maturation medium without ACC2i

Molecule: COc1cc2c(cc1OC)CC(=O)N(CCCN(C)C[C@H]1Cc3cc(OC)c(OC)cc31)CC2 [ivabradine]
- block of inward current ([1]; 10 µM ivabradine): ~ 5%

Molecule: endothelin-1 (CSCSSLMDKECVYFCHLDIIW; disulfide 1-15, 3-11; ends not checked; UniProt P05305 53-73, looked up) [ET-1]
- structural changes (hiPSC-CMs [2]; cells cultured in standard medium): no significant structural changes
- cell area (hiPSC-CMs [2]; maturation medium group): trend towards increased
- length-to-width ratio (hiPSC-CMs [2]; maturation medium group): significant decrease

Molecule: CC(C)NCC(O)c1ccc(O)c(O)c1 (centres unmarked) [isoproterenol]
- increase in amplitude upon stimulation (iPSC C32 CMs; [5]): significantly higher increase
- increase in beat rate upon stimulation (iPSC C32 CMs; [5]): significantly higher increase

Molecule: O=C(c1c2ccccc2cc2ccccc12)N1CCC(N2CCC[C@@H](C(=O)N3CCOCC3)C2)CC1 [CP-640186]
- calcium transient amplitude and kinetics (iPSC C32 CMs; with ACC2i vs without): significantly improved
- calcium transient duration (iCell CMs^2): reduction
- calcium uptake and decay kinetics (iCell CMs^2): significant enhancement
- transient calcium amplitude (iCell CMs^2): no change
- IC50 (ACC1): ~55 nM
- FAO reliance (change in basal respiration upon etomoxir) (hiPSC-CMs [3]): significantly increased
- increase in reserve capacity (hiPSC-CMs [3]; 5 µM ACC2i): 1.7 fold
- reduction in energy dissipation through proton leak (hiPSC-CMs [3]; 5 µM ACC2i): 2.5 fold
- ACC2i concentration resulting in a decrease in the number of nuclei (potential cardiac toxicity) (hiPSC-CMs [4]): exceeding 5 uM
- IC50 (ACC2): ~55 nM

Molecule: [Ba+2].[Cl-].[Cl-] [Ba^2+, BaCl2]
- block of inward current ([1]; 100 µM Ba2+): > 90%
